Measured values reported in patent US20210278402A1, “METHOD FOR TESTING OF ANTIBIOTIC SUSCEPTIBILITY IN MICROORGANISMS” (MODULE INNOVATIONS PRIVATE LIMITED, priority 2018, published 2021).
Converted amounts (≈) assume the structure as drawn. Where two headings read alike, the source gives them in different places.

Legend:
[1] = tested on: K. pneumoniae; assay: Antibiotic susceptibility testing by the method of the present invention (AuNP-GOx-Ab nanoprobes, absorbance at 545 nm); format: cell-based; settings: for Interpretation of results of the present method: Patient two urine sample infected with K. pneumoniae, antibiotic at EUCAST breakpoint concentration of Table 1; for MIC: Klebsiella pneumoniae, MIC = dilution showing the criterion % reduction compared to no antibiotics (34% levofloxacin, 23% amikacin), read-out: MIC obtained with the diagnostic method assay
Protocol: (§1) 250 μL of urine sample was mixed with 250 μL of 2× Mueller-Hinton broth in autoclaved Eppendorf tubes. Respective concentrations of antibiotics as recited in Table 1 were added in each tubes along with one tube without antibiotic which served as a control for monitoring the growth of bacteria. 7-10 μL of the nanoprobes (AuNP-GOx-Ab) prepared in the Example 2 above was added to the mixture and allowed to incubate at 37° C. for 90 minutes to allow growth of bacteria. The solution was then passed through a membrane filter with a pore size of about 450 nm diameter to separate the bacteria bound to the nanoprobes from the unbound ones. The bacteria bound nanoprobes (nanoprobe-bacteria complex) captured on the membrane surface were then recovered by injecting 250 μL of sodium acetate buffer (10 mM, pH 5.1) from the opposite direction.
(§2) 250 μL of the recovered bacteria-nanoprobe complexes were then incubated at 37° C. for 10 minutes with 50 μL glucose solution (final concentration 100 mM) for production of hydrogen peroxide. After 10 minutes, 150 μL of seed solution containing about 16 nM gold nanoparticles having about 5 nm size and 150 μL of 1.25 mM HAuCl4 solution was added to induce growth of the seed particles and left for 20 minutes to allow growth of the seed particle. Finally, the growth of seed nanoparticles and the intensity of colour formed were determined by recording an absorption spectrum for each sample. FIG. 8(a) provides graphic representation of UV-Visible spectra for antibiotic sensitivity test of patient urine samples with different antibiotics, according to an embodiment of the present invention.
The antibacterial susceptibility test of patient two urine sample containing K. pneumoniae towards the antibiotics ampicillin, gentamicin, levofloxacin and imipenem was performed as mentioned above.
(§3) MIC determination protocol was tested on other antibiotics-bacteria combinations as well and percent reduction criterion was determined for each pair from repeated tests.

[2] = tested on: multi-drug resistant P. aeruginosa; assay: as above; format: cell-based; settings: Patient two sample infected with multi-drug resistant P. aeruginosa, antibiotic at EUCAST breakpoint concentration of Table 1
Protocol: as §1
(§4) 250 μL of the recovered bacteria-nanoprobe complexes were then incubated at 37° C. for 10 minutes with 50 μL glucose solution (final concentration 100 mM) for production of hydrogen peroxide. […] Finally, the growth of seed nanoparticles and the intensity of colour formed were determined by recording an absorption spectrum for each sample. […]

[3] = tested on: K. pneumoniae; assay: CLSI reference method of microdilution; format: cell-based; settings: for Interpretation by Microdilution: EUCAST breakpoints; for MIC: Klebsiella pneumoniae
[4] = tested on: P. aeruginosa; assay: CLSI reference method of microdilution; format: cell-based; settings: for MIC: Pseudomonas aeruginosa, patient two sample infected with P. aeruginosa, read-out: MIC reported by Microdilution
[5] = tested on: K. pneumoniae; assay: VITEK automated susceptibility test; format: cell-based; settings: for MIC: Klebsiella pneumoniae, patient two urine sample infected with K. pneumoniae, read-out: MIC reported by VITEK
Description: (§5) The AST market has several products based on the method they employ for testing that include automated systems, discs, MIC strips and media. Most extensively used method to determine antibiotic susceptibility involve culture tests based on the phenotypic growth of the bacteria, which require three days to arrive at the conclusion (Puttaswamy S. et al., 2018). Although culture-based growth methods are the most widely used systems for AST, a few sophisticated high-end labs and hospitals employ automated test machines such as Vitek 2.0 from Biomeriux Technologies, Phoenix from BD etc. These instruments work on the measurement of light attenuation by optical scanner for growth/no growth of bacteria in micro-wells with different antibiotics.

[6] = tested on: P. aeruginosa; assay: VITEK automated susceptibility test; format: cell-based; settings: for MIC: Pseudomonas aeruginosa, patient two sample infected with P. aeruginosa, read-out: MIC reported by VITEK
Description: as §5

[7] = tested on: E. coli; assay: Antibiotic susceptibility testing by the method of the present invention (AuNP-GOx-Ab nanoprobes, absorbance at 545 nm); format: cell-based; settings: for Interpretation of results of the present method: Patient two urine sample infected with E. coli (10^4 CFU/mL), antibiotic at EUCAST breakpoint concentration of Table 1
Protocol: as §1
as §2, with “sample.” for “sample. FIG. 8(a) provides graphic representation of UV-Visible spectra for antibiotic sensitivity test of patient urine samples with different antibiotics, according to an embodiment of the present invention.”
as §3

[8] = tested on: E. coli; assay: CLSI reference method of microdilution; format: cell-based; settings: for MIC: Escherichia coli
[9] = tested on: E. coli; assay: VITEK automated susceptibility test; format: cell-based; settings: for MIC: Escherichia coli, read-out: MIC reported by VITEK
Description: as §5

[10] = tested on: E. faecalis; assay: Antibiotic susceptibility testing by the method of the present invention (AuNP-GOx-Ab nanoprobes, absorbance at 545 nm); format: cell-based; settings: Patient two sample infected with E. faecalis, antibiotic at EUCAST breakpoint concentration of Table 1
Protocol: as §1, §4

[11] = tested on: E. faecalis; assay: CLSI reference method of microdilution; settings: for MIC: Enterococcus faecalis, read-out: MIC reported by Microdilution
[12] = glucose 100 mM, 37° C., 10 minutes
Protocol: Varying concentrations of GOx, namely, 6 mU, 10 mU and 30 mU and glucose (100 mM) were incubated at 37° C. for 10 minutes and the hydrogen peroxide produced was determined using a H2O2 assay kit (MAK165-SIGMA-ALDRICH).

[13] = Patient two urine sample infected with K. pneumoniae
[14] = Patient two sample infected with P. aeruginosa
[15] = Patient one urine sample infected with E. coli
[16] = Clinical isolate K. pneumoniae, read-out: MIC obtained with CLSI reference method of microdilution
[17] = patient two urine sample infected with E. coli
[18] = patient two urine sample infected with K. pneumoniae, read-out: MIC reported by Microdilution

In the case of Gentamicin, the “Interpretation of results of the present method” value [1] is reported as “Sensitive”, the “Interpretation of results of the present method” value ([1]; listed as gentamicin) is reported as “sensitive” and the “Interpretation of results of the present method” value [2] is reported as “Resistant”. For the same compound, the “Interpretation of results of the present method” value ([2]; listed as gentamicin) was “resistant”, the “MIC reported by Microdilution” value [3, 13] was 0.5 µg/mL and the “Interpretation by Microdilution” value [3, 13] was “Sensitive”. The “MIC reported by Microdilution” value [4, 14] was “>=32 μg/mL”, the “Interpretation by Microdilution” value ([4]; Patient two sample infected with P. aeruginosa, EUCAST breakpoints) was “Resistant” and the “Interpretation by VITEK” value [5, 13] was “Sensitive”. For the same compound, the “MIC reported by VITEK” value [5, 13] was “<=1 μg/mL”, the “Interpretation by VITEK” value [6, 14] was “Resistant” and the “MIC reported by VITEK” value [6, 14] was “>=16 μg/mL”.

With `C[C@H]1COc2c(N3CCN(C)CC3)c(F)cc3c(=O)c(C(=O)O)cn1c23` [Levofloxacin] the “MIC (concentration at which signal intensity shows 34% reduction against the control)” value ([7]; E. coli as printed in text, present method, 34% reduction criterion) was 16 µg/mL, the MIC ([1]; Clinical isolate K. pneumoniae) was 16 µg/mL and the MIC ([8]; patient two urine sample infected with E. coli, read-out: MIC reported by Microdilution) was 64 µg/mL (≈ 177 µM). For the same compound, the “MIC reported by Microdilution” value [8, 15] was 64 µg/mL (≈ 177 µM), the MIC [3, 16] was 16 µg/mL (≈ 44.3 µM) and the MIC [4] was no less than 32 µg/mL. For the same compound, the MIC [9, 17] was no less than 8 µg/mL, the “MIC reported by VITEK” value [9, 15] was “>=8 μg/mL” and the MIC [6] was no less than 8 µg/mL.

In the case of `CN[C@H](CC(C)C)C(=O)N[C@H]1C(=O)N[C@@H](CC(N)=O)C(=O)N[C@H]2C(=O)N[C@H]3C(=O)N[C@H](C(=O)N[C@H](C(=O)O)c4cc(O)cc(O)c4-c4cc3ccc4O)[C@H](O)c3ccc(c(Cl)c3)Oc3cc2cc(c3O[C@@H]2O[C@H](CO)[C@@H](O)[C@H](O)[C@H]2O[C@H]2C[C@](C)(N)[C@H](O)[C@H](C)O2)Oc2ccc(cc2Cl)[C@H]1O` [Vancomycin], the “Interpretation of results of the present method” value [10] is reported as “Sensitive”, the “Interpretation of results of the present method” value ([10]; listed as vancomycin) is reported as “sensitive” and the MIC [11] is reported as 1 µg/mL (≈ 0.69 µM). The “Interpretation by Microdilution” value ([11]; Patient two sample infected with E. faecalis, EUCAST breakpoints) was “Sensitive”.

For `CC1(C)S[C@@H]2[C@H](NC(=O)[C@H](N)c3ccccc3)C(=O)N2[C@H]1C(=O)O` [Ampicillin], the “Interpretation of results of the present method” value [7] was “Sensitive”, the “Interpretation of results of the present method” value ([7]; listed as ampicillin) was “sensitive” and the “Interpretation of results of the present method” value [1] was “Resistant”. The “Interpretation of results of the present method” value ([1]; listed as ampicillin) was “resistant”, the “Interpretation by Microdilution” value ([8]; Patient two urine sample infected with E. coli, EUCAST breakpoints) was “Sensitive” and the MIC [3, 18] was 256 µg/mL (≈ 733 µM). The “Interpretation by Microdilution” value [3, 13] was “Resistant”, the MIC [5] was greater than 16 µg/mL and the “Interpretation by VITEK” value [5, 13] was “Resistant”.

With `C[C@@H](O)[C@H]1C(=O)N2C(C(=O)O)=C(SCCN=CN)C[C@H]12` [Imipenem] the MIC ([7]; Escherichia coli, Clinical isolate E. coli, MIC = dilution showing the criterion % reduction compared to no antibiotics (55% for imipenem), read-out: MIC obtained with the diagnostic method assay) was 0.125 µg/mL, the MIC ([8]; Clinical isolate E. coli, read-out: MIC obtained with CLSI reference method of microdilution) was 0.25 µg/mL (≈ 0.835 µM) and the MIC ([8]; patient one urine sample infected with E. coli, read-out: MIC reported by Microdilution) was 0.25 µg/mL (≈ 0.835 µM). The MIC [3, 18] was 0.125 µg/mL (≈ 0.418 µM), the MIC [4] was no less than 32 µg/mL and the MIC ([9]; patient one urine sample infected with E. coli) was no more than 0.25 µg/mL. For the same compound, the MIC [5] was no more than 0.25 µg/mL, the MIC [6] was no less than 16 µg/mL and the MIC [11] was 0.5 µg/mL (≈ 1.67 µM).

For glucose oxidase [GOx], the H2O2 generated ([12]; 6 mU GOx) was 60.76 ± 7.6 µM, the H2O2 generated ([12]; 10 mU GOx) was 113.46 ± 48.1 µM and the H2O2 generated ([12]; 30 mU GOx) was 166.25 ± 5.3 µM.

`O=C1CN(/N=C/c2ccc([N+](=O)[O-])o2)C(=O)N1` [Nitrofurantoin] showed an MIC [9, 17] of no more than 32 µg/mL.

In the case of `NCC[C@H](O)C(=O)N[C@@H]1C[C@H](N)[C@@H](O[C@H]2O[C@H](CN)[C@@H](O)[C@H](O)[C@H]2O)[C@H](O)[C@H]1O[C@H]1O[C@H](CO)[C@@H](O)[C@H](N)[C@H]1O` [Amikacin], the “Interpretation by diagnostic method” value ([1]; Clinical isolate K. pneumoniae) is reported as “Resistant”, the MIC ([1]; Clinical isolate K. pneumoniae) is reported as 128 µg/mL and the “Interpretation by CLSI reference method of microdilution” value ([3]; Clinical isolate K. pneumoniae) is reported as “Resistant”. The MIC [3, 16] was 128 µg/mL (≈ 219 µM).
